{"source": "patent US9546200B2", "about": "“Peptide for protection of allergic respiratory disorders” (Board of Supervisors of Louisiana State University and …, priority 2011, dated 2017)", "tested_on": "foals", "set-up": "species or system horse", "conditions": "in vivo", "protocol": "Two days before the injection of the peptide-1, a foal along with the mare was brought from the pasture to a bedded stall of the LSU School of Veterinary Medicine. They were fed hay and concentrated horse chow (Horse Chow #200^R, Purina Mills, St. Louis, Mo.); water was provided ad libitum. A physical examination was conducted on the day of injection. The foal's body temperature, heart rate, respiratory rate, body weight, body score, sex, breed, age and general physical conditions were recorded. After the physical examination, 5 ml of blood was drawn from jugular vein to determine pre-immune antibody titer (control value) and CBC.\nSince the peptide-1 has not been tried in any animals, the first foal was used to test the injection method and dosage. A low dose of 0.1 mg/kg body weight of conjugated peptide-1 with KLH was used, but without an adjuvant to minimize any adverse reactions due to either a high dose of peptide-1 or adjuvant. This protocol allowed a determination of any reaction due to the conjugated peptide-1 alone. A subcutaneous route of administration was chosen to produce a consistent “slow and steady” absorption. The first injection was given on the left side of the neck after cleaning with alcohol. […] After the injection, 5 ml blood was collected weekly. A booster injection with the same dose and route was given on the right side of the neck on the 15th day following the initial injection. Weekly blood collections continued for 42 days. […] For the remaining foals, a new protocol was used in that an adjuvant was added to the injection and the booster injection was given on the 28th day after the initial injection.\nImmediately after injection (either the first injection or the booster), a small swelling (size 1″×0.5″) at the site of injection was observed. The foal was observed continuously for the first hour and later every hour for eight hours. The foal evinced pain upon touch at the injection site, but it was eating, nursing, and drinking within 15 minutes after injection. […] No sweating, fever, cough, seizure or difficulty in breathing was observed.\nThe foal remained under close observation for another two days, when the swelling began to subside. On the third day, foal and mare were allowed to go to the pasture. A similar swelling occurred at the booster injection time also. Therefore, in the animal protocol, foals would be kept in the bedded stall with the mare for a week after injection to observe the foals closely. In addition, the protocol demanded that if the swollen area is more than 2.5″ in diameter and more than 0.5″ in thickness, hot water packs are to be applied to relieve pain and swelling. Veterinary medical care is to be consulted if the condition worsens. After one week in the stall, the Foal #2 was let out to pasture and continued to do well for the remainder of the experimental period of 57 days.\nThe basic protocol is as described for Foal #2. However, before injecting the peptide, extra care was taken in cleaning the injection site by scrubbing the site with Septisol antiseptic foam (Septisol^R, Steris Corp., Ohio) and alcohol. […] There was a small swelling in this foal which lasted only for 24 hours, probably due to the adjuvant. The adjuvant has an oily consistency, which would facilitate slow absorption of the injected solution.", "note": "Residues, ends and D or L forms follow the SMILES beside them."}
{"compound": "CC[C@H](C)[C@H](NC(=O)[C@H](CCCCN)NC(=O)[C@H](CC(=O)O)NC(=O)[C@H](CCSC)NC(=O)[C@H](CC(C)C)NC(=O)[C@H](CCCCN)NC(=O)[C@H](CC(C)C)NC(=O)[C@@H](NC(=O)[C@H](CO)NC(=O)[C@H](CC(=O)O)NC(=O)[C@H](CCCCN)NC(=O)[C@@H](NC(=O)[C@H](CC(N)=O)NC(=O)[C@@H](N)CCCCN)[C@@H](C)O)[C@@H](C)CC)C(=O)N[C@@H](C)C(=O)N[C@@H](CCCCN)C(=O)N[C@@H](CO)C(=O)N1CCC[C@H]1C(=O)N[C@@H](CC(C)C)C(=O)N[C@@H](CS)C(=O)N[C@@H](C)C(=O)O", "note": "[Peptide-1] (H-KNTKDSILKLMDKIAKSPLCA-OH)", "values": [{"measurement": "area of swelling at the injection site", "result": "2.5″×2″"}, {"measurement": "size of swelling at the site of injection", "result": "1″×0.5″"}, {"measurement": "thickness of swelling at the injection site", "result": "0.5 ″"}, {"measurement": "duration of swelling", "setting": "sc, 0.1 mg/kg", "result": 24, "unit": "h"}, {"measurement": "other adverse reaction", "setting": "sc, 0.1 mg/kg", "result": "no other adverse reaction"}]}
